Measured values: PubChem BioAssay AID1963982 (Molecular Pharmacology Branch, DTP, NCI, 2024)
Where “and” joins values, the source holds several entries; their conditions need not be identical. Identical values can stand only once.

System: 313798-341-R-J2-PDC spheroids, viability
Assay: Anticancer human tumor 313798-341-R-J2-PDC patient-derived cervical squamous cell carcinoma cell line growth inhibition [PI3K]
Conditions: spheroids with HUVEC and MSC; for viability, T/C: stronger effect = lower value
Excerpt: Combinatorial screen of targeted agents with the PI3K inhibitors inavolisib, alpelisib, duvelisib, and copanlisib in multi-cell type tumor spheroids
A high-throughput screen of multi-cell type tumor spheroids was designed to identify active combinations of targeted small molecules and PI3K pathway inhibitors. Complex spheroids include a stromal component modeled by human endothelial cells (HUVEC) and fibroblasts modeled by human mesenchymal stem cells (MSCs). The concentration ranges selected for each drug and investigational agent were based upon clinically achievable concentrations if the clinical Cmax of the agent was known.
Compounds. The drugs and investigational agents: inavolisib (NSC800729), alpelisib (NSC765974), duvelisib (NSC772469), copanlisib (NSC816437), ipatasertib (NSC767898), afuresertib (NSC778305), talazoparib (NSC767125), sapanisertib (NSC764658), selumetinib (NSC741078), tovorafenib (DAY101, NSC766906), vemurafenib (NSC761431), ravoxertinib (NSC781343), sotorasib (NSC818433), MRTX1133 (NSC 836407), abemaciclib (NSC 768073), palbociclib (NSC758247), venetoclax (NSC 766270), SY5609 (NSC837396), enzalutamide (NSC755605), and darolutamide (NSC825331), were obtained from the National Cancer Institute (NCI) Developmental Therapeutics Program Chemical Repository. The FDA-approved anticancer drug set is available from the NCI Developmental Therapeutics Program. […] The stock solutions were prepared in dimethyl sulfoxide (DMSO, Sigma-Aldrich, St. Louis, MO, cat. D2650) at 800-fold the tested concentration and stored at -70 degrees C prior to their use. All drugs and investigational agents were tested over a range starting from a high concentration at or near the clinical Cmax and decreasing in half-log increments. If the clinical Cmax for an agent had not been determined, the highest concentration tested was 10 microM.
Cell Culture. All cells were maintained in an incubator at 37 degrees C and 5% CO2 with 95% humidity. The PDC lines were cultured according to standard operating procedures established by the NCI PDMR (https://pdmr.cancer.gov/sops/default.htm). All PDCs were thawed and cultured in Matrigel-coated flasks prepared with a working solution of 1X Ham's F-12 nutrient mix, without supplementation (Invitrogen, Waltham, MA, cat. 11765054), 100 U/mL penicillin-streptomycin (Invitrogen, cat. 15140122), and 2.5% Matrigel (Corning Inc., Corning, NY, cat. 354248) for the first three passages. The 354836-022-R-J1-PDC, 475296-252-R-J1-PDC, and 997726-040-R-J2-PDC lines were cultured in 6A media, which includes advanced DMEM/F-12 (Thermo Fisher Scientific, cat. 12634028), 10 mM HEPES (Thermo Fisher Scientific, cat. 15630080), 1X GlutaMAX supplement (Thermo Fisher Scientific, cat. 35050061), 0.1 mg/mL primocin (InvivoGen, San Diego, CA, cat. ant-pm-2), 10% defined fetal bovine serum, heat inactivated (HyClone Laboratories Inc., Logan, UT, cat. SH30070.03HI), 50% L-WRN conditioned media (ATCC, cat. CRL-3276), 1.25 mM N-Acetyl-L-cysteine (Sigma-Aldrich, cat. A9165), 10 mM nicotinamide (Sigma-Aldrich, cat. N0636), 1X B-27 supplement (Thermo Fisher Scientific, cat. 17504044), 1X N-2 supplement (Thermo Fisher Scientific, cat. 17502048), and 10 microM Y-27632 dihydrochloride (Tocris Bioscience, Bristol, United Kingdom, cat. 1254). The 624824-186-R-J2-PDC line was cultured in 6C/Colon 1B media, which includes all 6A media components plus 50 ng/mL human EGF recombinant protein (Thermo Fisher Scientific, cat. PHG0311). […]

[1] = compound alone, run of 04/24/2023
[2] = compound alone, run of 04/25/2023
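Note: spheroids exposed to compounds for seven days.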
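Throughout, for viability, T/C: 100% = DMSO vehicle control viability.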

IC50 (curve of compound)	IC50 [1]	IC50 [2]	SMILES	viability, T/C (compound 0.0316 µM)	viability, T/C (compound 0.1 µM)	viability, T/C (compound 0.316 µM)	viability, T/C (compound 1 µM)	viability, T/C (compound 3.16 µM)	viability, T/C (compound 10 µM)	viability, T/C (compound 0.000316 µM)	viability, T/C (compound 0.001 µM)	viability, T/C (compound 0.00316 µM)	viability, T/C (compound 0.01 µM)	viability, T/C (compound 0.00949 µM)	viability, T/C (compound 0.03 µM)	viability, T/C (compound 0.0949 µM)	viability, T/C (compound 0.3 µM)
> 10 µM			C=CC(=O)N1CCN(c2nc(=O)n(-c3c(C)ccnc3C(C)C)c3nc(-c4c(O)cccc4F)c(F)cc23)C(C)C1 (stereo unspecified)	100% [middle of 4 runs]	95% [middle of 4 runs]	95.7% [middle of 4 runs]	97.1% [middle of 4 runs]	105% [middle of 4 runs]	96.5% (2×) and 104% and 105%								
2 µM [middle of 4 runs]			CC(C)NCC(C(=O)N1CCN(c2ncnc3c2C(C)CC3O)CC1)c1ccc(Cl)cc1 (stereo unspecified)	97.6% [middle of 4 runs]	96.4% [middle of 4 runs]	92.8% [middle of 4 runs]	65.8% [middle of 4 runs]	41.6% [middle of 4 runs]	31.5% [middle of 4 runs]								
71.3 nM [middle of 4 runs]			CC(C)n1nc(-c2ccc3oc(N)nc3c2)c2c(N)ncnc21	77.7% [middle of 4 runs]	38.6% (2×) and 36.7% and 38.7%					99% [middle of 4 runs]	98.2% [middle of 4 runs]	101% [middle of 4 runs]	86.7% [middle of 4 runs]				
> 10 µM			CC(Cn1ccc(-c2ccc(C#N)c(Cl)c2)n1)NC(=O)c1cc(C(C)O)[nH]n1 (stereo unspecified)	98.1% and 107% and 99.7%	111% and 96.9% and 101%	101% and 107% and 113%	113% and 97.7% and 93.9%	99% and 105% and 104%	99.1% and 101% and 93.9%								
		> 10 µM	CC(Nc1ncnc2nc[nH]c12)c1cc2cccc(Cl)c2c(=O)n1-c1ccccc1 (stereo unspecified)	100% [middle of 8 runs]	95.1% [middle of 8 runs]	99.5% [middle of 8 runs]	97.6% [middle of 8 runs]	94.7% [middle of 8 runs]	89.6% [middle of 8 runs]								
6.37 µM [middle of 4 runs]			CCCS(=O)(=O)Nc1ccc(F)c(C(=O)c2c[nH]c3ncc(-c4ccc(Cl)cc4)cc23)c1F	98.2% [middle of 4 runs]	102% [middle of 4 runs]	101% [middle of 4 runs]	100% [middle of 4 runs]	107% (2×) and 99.1% and 108%	18.7% [middle of 4 runs]								
> 10 µM and 5.95 µM			C[C@@H](NC(=O)c1ncnc(N)c1Cl)c1ncc(C(=O)Nc2cc(C(F)(F)F)c(Cl)cn2)s1	94.6% [middle of 4 runs]	102% [middle of 4 runs]	99.1% [middle of 4 runs]	97.8% [middle of 4 runs]	120% [middle of 4 runs]									
> 10 µM			Cn1nccc1Nc1nccc(-c2ccn(C(CO)c3ccc(Cl)c(F)c3)c(=O)c2)n1 (stereo unspecified)	98.7% and 101% (2×) and 96.5%	95.3% [middle of 4 runs]	98.6% [middle of 4 runs]	100% [middle of 4 runs]	116% [middle of 4 runs]	96.9% and 104% (2×) and 105%								
> 0.1 µM			Cn1ncnc1[C@H]1c2n[nH]c(=O)c3cc(F)cc(c23)N[C@@H]1c1ccc(F)cc1	95.9% [middle of 4 runs]	89% [middle of 4 runs]						94.9% [middle of 4 runs]	94.7% [middle of 4 runs]	104% (2×) and 88.8% and 114%				

The remaining lines, values behind:

SMILES	IC50 (curve of compound)	IC50 [1]	IC50 [2]	viability, T/C (compound 0.0316 µM)	viability, T/C (compound 0.1 µM)	viability, T/C (compound 0.316 µM)	viability, T/C (compound 1 µM)	viability, T/C (compound 3.16 µM)	viability, T/C (compound 10 µM)	viability, T/C (compound 0.000316 µM)	viability, T/C (compound 0.001 µM)	viability, T/C (compound 0.00316 µM)	viability, T/C (compound 0.01 µM)	viability, T/C (compound 0.00949 µM)	viability, T/C (compound 0.03 µM)	viability, T/C (compound 0.0949 µM)	viability, T/C (compound 0.3 µM)
CC(=O)c1c(C)c2cnc(Nc3ccc(N4CCNCC4)cn3)nc2n(C2CCCC2)c1=O	> 0.1 µM			101% (2×) and 97.3%	94.9% and 101% and 110%					105% (2×) and 108%	105% (2×) and 110%	109% and 99.2% and 92.1%	101% and 103% and 118%				
CC(Nc1ccc2c(c1)OCCn1cc(N3C(=O)OCC3C(F)F)nc1-2)C(N)=O (stereo unspecified)		0.523 µM and 0.908 µM and > 1 µM		103% [middle of 8 runs]		76.6% [middle of 8 runs]	53.9% [middle of 8 runs]					96.5% [middle of 8 runs]	103% [middle of 8 runs]				
CC1(C)CCC(CN2CCN(c3ccc(C(=O)NS(=O)(=O)c4ccc(NCC5CCOCC5)c([N+](=O)[O-])c4)c(Oc4cnc5[nH]ccc5c4)c3)CC2)=C(c2ccc(Cl)cc2)C1				101% [middle of 4 runs]	97.8% [middle of 4 runs]	101% [middle of 4 runs]	94.4% [middle of 4 runs]	78.9% [middle of 4 runs]									
CC1(C)CCC(Nc2ncc(C(F)(F)F)c(-c3c[nH]c4c(P(C)(C)=O)c(C#N)ccc34)n2)CN1 (stereo unspecified)				56.6% [middle of 4 runs]	46.7% [middle of 4 runs]	50.4% [middle of 4 runs]	53.8% [middle of 4 runs]	58.9% [middle of 4 runs]									
CCN1CCN(Cc2ccc(Nc3ncc(F)c(-c4cc(F)c5nc(C)n(C(C)C)c5c4)n3)nc2)CC1	> 1 µM			103% [middle of 4 runs]	102% [middle of 4 runs]	120% [middle of 4 runs]	122% [middle of 4 runs]						99.5% [middle of 4 runs]				
CNC(=O)c1ccc(N2C(=S)N(c3ccc(C#N)c(C(F)(F)F)c3)C(=O)C2(C)C)cc1F	> 10 µM			104% and 102% (2×) and 89%	99.5% [middle of 4 runs]	104% [middle of 4 runs]	102% [middle of 4 runs]	105% [middle of 4 runs]	102% [middle of 4 runs]								
COc1c(OCCCN2CCOCC2)ccc2c3n(c(=NC(=O)c4cnc(N)nc4)nc12)CCN3			80.2 nM [middle of 7 runs]	84.5% [middle of 7 runs]	42.1% [middle of 7 runs]	14.9% [middle of 7 runs]	11.9% [middle of 7 runs]					101% [middle of 7 runs]	102% [middle of 7 runs]				
Cc1nc(NC(=O)N2CCCC2C(N)=O)sc1-c1ccnc(C(C)(C)C(F)(F)F)c1 (stereo unspecified)		4.93 µM [middle of 8 runs]		99.9% [middle of 8 runs]	97.5% [middle of 8 runs]	102% [middle of 8 runs]	90.6% [middle of 8 runs]	59.9% [middle of 8 runs]	36.2% [middle of 8 runs]								
Cn1cnc2c(F)c(Nc3ccc(Br)cc3Cl)c(C(=O)NOCCO)cc21	1.38 µM and > 3 µM													97.9% [middle of 4 runs]	92% [middle of 4 runs]	89.5% [middle of 4 runs]	93.5% [middle of 4 runs]
